Measurements: paper PMC5513037, “Examining the influence of specificity ligands and ATP-competitive ligands on the overall effectiveness of bivalent kinase inhibitors” (Proteome Science, 2017)

What was measured:
Test in all cases: KAM-matrix competition in K562 lysate;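 as to 0.001 uM KAM: median log10 fold change of treatment over DMSO control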;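 as to 0.01 uM KAM: median log10 fold change of treatment over DMSO control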;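 as to 0.1 uM KAM: median log10 fold change of treatment over DMSO control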;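 as to 1 uM KAM: median log10 fold change of treatment over DMSO control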;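 as to 10 uM KAM: median log10 fold change of treatment over DMSO control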
Format in all cases: binding
[1] = molecular target: T1, PDIK1L (Homo sapiens, UniProt Q8N165)
T1 construct: endogenous in cells; host or cells: K562
T1 sequence (Q8N165 whole entry): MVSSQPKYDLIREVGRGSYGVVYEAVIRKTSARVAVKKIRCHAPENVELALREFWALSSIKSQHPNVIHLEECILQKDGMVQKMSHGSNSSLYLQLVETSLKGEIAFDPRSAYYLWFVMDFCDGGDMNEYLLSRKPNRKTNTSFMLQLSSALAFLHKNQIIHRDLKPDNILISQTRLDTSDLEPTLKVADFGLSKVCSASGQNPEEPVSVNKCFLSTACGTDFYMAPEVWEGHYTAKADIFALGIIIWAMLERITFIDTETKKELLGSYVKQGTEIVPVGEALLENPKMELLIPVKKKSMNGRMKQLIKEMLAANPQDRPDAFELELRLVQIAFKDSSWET
Description: (§1) Supplement 12953_2017_125_MOESM1_ESM.zip/MS_Supp Info.xlsx, sheet "KAM" | column: 10 uM KAM; 1 uM KAM; 0.1 uM KAM; 0.01 uM KAM; 0.001 uM KAM; RB50

[2] = molecular target: T2, MAP4K2 (Homo sapiens, UniProt Q12851)
T2 construct: endogenous in cells; host or cells: K562
T2 sequence (Q12851 1-820): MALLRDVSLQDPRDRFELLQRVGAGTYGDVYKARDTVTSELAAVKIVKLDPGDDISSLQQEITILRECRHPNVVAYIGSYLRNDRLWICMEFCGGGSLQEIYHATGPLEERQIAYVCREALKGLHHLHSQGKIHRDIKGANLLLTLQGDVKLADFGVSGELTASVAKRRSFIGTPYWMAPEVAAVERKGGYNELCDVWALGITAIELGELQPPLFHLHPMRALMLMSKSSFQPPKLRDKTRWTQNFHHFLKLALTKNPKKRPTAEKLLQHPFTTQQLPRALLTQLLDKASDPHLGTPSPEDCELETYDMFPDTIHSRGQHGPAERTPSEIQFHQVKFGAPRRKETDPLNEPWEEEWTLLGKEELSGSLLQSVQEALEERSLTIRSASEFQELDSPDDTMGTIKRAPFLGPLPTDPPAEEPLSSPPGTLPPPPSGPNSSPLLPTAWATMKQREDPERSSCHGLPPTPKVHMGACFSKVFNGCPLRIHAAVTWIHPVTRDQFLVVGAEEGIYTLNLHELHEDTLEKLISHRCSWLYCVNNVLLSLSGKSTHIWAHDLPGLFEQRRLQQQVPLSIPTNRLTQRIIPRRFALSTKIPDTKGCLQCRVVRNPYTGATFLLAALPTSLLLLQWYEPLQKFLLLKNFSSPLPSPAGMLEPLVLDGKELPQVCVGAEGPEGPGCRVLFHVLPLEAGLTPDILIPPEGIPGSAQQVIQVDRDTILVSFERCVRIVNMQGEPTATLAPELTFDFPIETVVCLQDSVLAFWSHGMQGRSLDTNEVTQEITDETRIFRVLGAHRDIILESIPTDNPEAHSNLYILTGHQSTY
Description: as §1

[3] = molecular target: T3, ADCK3 (Homo sapiens, UniProt Q8NI60);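 as to 0.001 uM KAM: median log10 fold change of treatment over DMSO control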;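 as to 0.01 uM KAM: median log10 fold change of treatment over DMSO control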;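 as to 0.1 uM KAM: median log10 fold change of treatment over DMSO control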;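 as to 1 uM KAM: median log10 fold change of treatment over DMSO control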;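 as to 10 uM KAM: median log10 fold change of treatment over DMSO control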
T3 construct: endogenous in cells; host or cells: K562
T3 sequence (Q8NI60 163-647): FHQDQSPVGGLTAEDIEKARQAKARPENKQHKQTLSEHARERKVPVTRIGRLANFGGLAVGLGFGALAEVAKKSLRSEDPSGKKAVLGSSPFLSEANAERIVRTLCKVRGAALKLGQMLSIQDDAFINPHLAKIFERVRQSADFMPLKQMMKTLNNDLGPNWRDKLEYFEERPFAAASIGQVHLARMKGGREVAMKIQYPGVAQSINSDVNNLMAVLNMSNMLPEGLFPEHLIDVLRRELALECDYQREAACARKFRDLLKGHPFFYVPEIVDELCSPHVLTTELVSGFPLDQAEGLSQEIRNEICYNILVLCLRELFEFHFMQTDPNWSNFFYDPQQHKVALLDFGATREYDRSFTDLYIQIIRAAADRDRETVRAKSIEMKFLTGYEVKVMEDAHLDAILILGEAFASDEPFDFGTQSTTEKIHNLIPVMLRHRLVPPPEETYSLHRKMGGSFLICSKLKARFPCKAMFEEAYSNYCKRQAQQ
Description: as §1

[4] = molecular target: T4, STK10 (Homo sapiens, UniProt O94804)
T4 construct: endogenous in cells; host or cells: K562 cell lysate
T4 sequence (O94804 whole entry): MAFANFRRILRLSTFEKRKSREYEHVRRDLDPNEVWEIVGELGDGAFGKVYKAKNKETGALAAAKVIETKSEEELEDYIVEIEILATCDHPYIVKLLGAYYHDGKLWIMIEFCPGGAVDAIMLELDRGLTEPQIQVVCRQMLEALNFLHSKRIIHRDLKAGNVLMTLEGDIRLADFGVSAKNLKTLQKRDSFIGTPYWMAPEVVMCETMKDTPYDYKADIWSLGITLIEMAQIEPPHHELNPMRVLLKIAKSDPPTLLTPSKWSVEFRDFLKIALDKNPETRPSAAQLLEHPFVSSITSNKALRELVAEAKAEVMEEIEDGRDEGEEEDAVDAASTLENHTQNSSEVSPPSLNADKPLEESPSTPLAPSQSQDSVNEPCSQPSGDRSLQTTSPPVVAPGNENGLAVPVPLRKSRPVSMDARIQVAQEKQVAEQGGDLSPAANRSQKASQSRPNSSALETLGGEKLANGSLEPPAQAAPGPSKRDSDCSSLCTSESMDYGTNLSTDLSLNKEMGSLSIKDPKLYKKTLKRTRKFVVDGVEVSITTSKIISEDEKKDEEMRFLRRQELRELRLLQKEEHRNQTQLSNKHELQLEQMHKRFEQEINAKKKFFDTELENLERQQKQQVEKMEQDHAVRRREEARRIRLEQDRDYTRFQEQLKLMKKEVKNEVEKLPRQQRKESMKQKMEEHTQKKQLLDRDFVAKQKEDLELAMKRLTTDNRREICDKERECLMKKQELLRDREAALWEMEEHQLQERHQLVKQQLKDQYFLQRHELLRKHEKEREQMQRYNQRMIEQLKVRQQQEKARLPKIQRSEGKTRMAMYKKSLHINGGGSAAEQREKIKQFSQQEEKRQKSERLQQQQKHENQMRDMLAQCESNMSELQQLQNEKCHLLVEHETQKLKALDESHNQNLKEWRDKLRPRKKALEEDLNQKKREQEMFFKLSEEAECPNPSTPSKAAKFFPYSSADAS
Description: as §1

[5] = molecular target: T5, GAK (Homo sapiens, UniProt O14976)
T5 construct: endogenous in cells; host or cells: K562 cell lysate
T5 sequence (O14976 1-1311): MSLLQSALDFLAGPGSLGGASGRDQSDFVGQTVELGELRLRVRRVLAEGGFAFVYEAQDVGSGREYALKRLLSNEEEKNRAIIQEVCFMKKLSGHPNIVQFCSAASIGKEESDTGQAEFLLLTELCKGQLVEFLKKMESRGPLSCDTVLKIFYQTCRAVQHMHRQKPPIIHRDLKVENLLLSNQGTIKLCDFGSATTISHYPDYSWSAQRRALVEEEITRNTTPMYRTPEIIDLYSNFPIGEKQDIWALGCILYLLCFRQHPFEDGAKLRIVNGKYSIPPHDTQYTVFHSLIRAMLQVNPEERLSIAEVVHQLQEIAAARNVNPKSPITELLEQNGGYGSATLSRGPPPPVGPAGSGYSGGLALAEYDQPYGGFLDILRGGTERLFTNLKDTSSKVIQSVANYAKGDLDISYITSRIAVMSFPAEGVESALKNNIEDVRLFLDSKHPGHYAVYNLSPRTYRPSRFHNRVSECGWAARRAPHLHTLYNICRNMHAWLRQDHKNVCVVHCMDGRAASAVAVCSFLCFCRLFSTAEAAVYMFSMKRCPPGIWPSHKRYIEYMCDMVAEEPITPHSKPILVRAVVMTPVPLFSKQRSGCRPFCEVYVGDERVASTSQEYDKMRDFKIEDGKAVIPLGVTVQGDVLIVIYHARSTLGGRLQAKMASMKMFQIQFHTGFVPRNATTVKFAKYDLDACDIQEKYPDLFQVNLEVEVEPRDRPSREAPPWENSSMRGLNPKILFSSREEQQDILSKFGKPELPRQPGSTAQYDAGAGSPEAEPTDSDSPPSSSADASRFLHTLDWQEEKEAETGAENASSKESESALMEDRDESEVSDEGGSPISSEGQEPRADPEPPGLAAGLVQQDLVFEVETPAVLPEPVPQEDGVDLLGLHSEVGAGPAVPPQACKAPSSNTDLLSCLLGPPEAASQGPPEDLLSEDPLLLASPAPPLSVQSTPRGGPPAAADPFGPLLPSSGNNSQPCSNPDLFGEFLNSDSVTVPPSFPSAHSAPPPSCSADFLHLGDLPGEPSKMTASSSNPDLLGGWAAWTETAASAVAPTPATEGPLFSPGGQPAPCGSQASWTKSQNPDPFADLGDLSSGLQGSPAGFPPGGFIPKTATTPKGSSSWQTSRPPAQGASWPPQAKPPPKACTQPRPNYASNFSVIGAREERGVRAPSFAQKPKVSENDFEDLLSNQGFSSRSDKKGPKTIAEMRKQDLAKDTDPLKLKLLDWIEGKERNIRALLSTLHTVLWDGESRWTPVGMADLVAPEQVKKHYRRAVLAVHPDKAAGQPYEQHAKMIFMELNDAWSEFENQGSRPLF
Description: as §1

[6] = molecular target: T6, JAK1 (Homo sapiens, UniProt P23458)
T6 construct: endogenous in cells; host or cells: K562
T6 sequence (P23458 whole entry): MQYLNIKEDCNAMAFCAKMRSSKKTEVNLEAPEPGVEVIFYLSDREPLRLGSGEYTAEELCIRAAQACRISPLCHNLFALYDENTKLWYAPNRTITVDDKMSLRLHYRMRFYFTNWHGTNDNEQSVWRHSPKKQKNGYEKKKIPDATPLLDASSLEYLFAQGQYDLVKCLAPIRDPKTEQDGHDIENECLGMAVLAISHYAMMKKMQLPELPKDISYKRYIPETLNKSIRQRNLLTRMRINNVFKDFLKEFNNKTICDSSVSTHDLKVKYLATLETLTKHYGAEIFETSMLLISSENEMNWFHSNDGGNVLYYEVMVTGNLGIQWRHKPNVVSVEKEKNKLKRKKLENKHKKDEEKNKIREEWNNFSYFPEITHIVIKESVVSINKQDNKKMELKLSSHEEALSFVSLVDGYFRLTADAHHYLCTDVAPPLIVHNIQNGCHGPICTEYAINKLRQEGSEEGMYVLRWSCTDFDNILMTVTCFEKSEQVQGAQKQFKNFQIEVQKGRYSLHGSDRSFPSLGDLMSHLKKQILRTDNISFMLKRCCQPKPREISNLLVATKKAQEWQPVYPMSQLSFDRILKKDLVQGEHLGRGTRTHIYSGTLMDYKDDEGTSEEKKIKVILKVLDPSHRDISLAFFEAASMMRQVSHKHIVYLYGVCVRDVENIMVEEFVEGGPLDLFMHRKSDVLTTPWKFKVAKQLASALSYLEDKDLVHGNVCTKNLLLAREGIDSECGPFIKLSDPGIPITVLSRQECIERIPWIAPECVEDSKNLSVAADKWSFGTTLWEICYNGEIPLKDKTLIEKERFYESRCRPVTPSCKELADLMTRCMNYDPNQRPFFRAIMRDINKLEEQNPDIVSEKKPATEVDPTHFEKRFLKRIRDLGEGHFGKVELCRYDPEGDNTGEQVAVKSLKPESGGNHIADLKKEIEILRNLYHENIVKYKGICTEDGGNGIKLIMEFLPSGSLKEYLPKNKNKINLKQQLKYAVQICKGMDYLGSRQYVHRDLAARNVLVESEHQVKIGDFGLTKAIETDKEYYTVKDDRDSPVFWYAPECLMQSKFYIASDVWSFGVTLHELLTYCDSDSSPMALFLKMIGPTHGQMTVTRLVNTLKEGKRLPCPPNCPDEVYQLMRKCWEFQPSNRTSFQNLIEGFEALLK
Description: as §1

[7] = read-out: RB50 (the source's name)

N#CCc1ccc(Nc2nc(NCCCN)cc(Nc3cc(C4CC4)[nH]n3)n2)cc1 [KAM]
median Log10 fold change ([1]; 0.001 uM KAM): -0.01583
median Log10 fold change ([1]; 0.01 uM KAM): -0.03169
median Log10 fold change ([1]; 0.1 uM KAM): -0.1434
median Log10 fold change ([1]; 1 uM KAM): -0.3076
median Log10 fold change ([1]; 10 uM KAM): -0.3596
IC50 [1, 7]: 1310 nM
median Log10 fold change ([2]; 0.001 uM KAM): -0.01936
median Log10 fold change ([2]; 0.01 uM KAM): -0.0303
median Log10 fold change ([2]; 0.1 uM KAM): -0.2006
median Log10 fold change ([2]; 1 uM KAM): -0.2485
median Log10 fold change ([2]; 10 uM KAM): -0.341
IC50 [2, 7]: 2230 nM
IC50 ([3]; KAM 0.001-10 uM, read-out: RB50 (the source's name)): > 10000 nM
0.001 uM KAM ([3]; relative to 0 uM KAM = 0): -0.001841
0.01 uM KAM ([3]; relative to 0 uM KAM = 0): 0.006632
0.1 uM KAM ([3]; relative to 0 uM KAM = 0): 0.0007813
1 uM KAM ([3]; relative to 0 uM KAM = 0): 0.03707
10 uM KAM ([3]; relative to 0 uM KAM = 0): -0.06845
median Log10 fold change ([4]; 0.001 uM KAM): -0.02902
median Log10 fold change ([4]; 0.01 uM KAM): -0.03253
median Log10 fold change ([4]; 0.1 uM KAM): -0.2078
median Log10 fold change ([4]; 1 uM KAM): -0.4135
median Log10 fold change ([4]; 10 uM KAM): -0.5057
IC50 [4, 7]: 404 nM
median Log10 fold change ([5]; 0.001 uM KAM): -0.03137
median Log10 fold change ([5]; 0.01 uM KAM): -0.03807
median Log10 fold change ([5]; 0.1 uM KAM): -0.2019
median Log10 fold change ([5]; 1 uM KAM): -0.4109
median Log10 fold change ([5]; 10 uM KAM): -0.5049
IC50 [5, 7]: 424 nM
median Log10 fold change ([6]; 0.001 uM KAM): -0.0004094
median Log10 fold change ([6]; 0.01 uM KAM): 0.001552
median Log10 fold change ([6]; 0.1 uM KAM): -0.1118
median Log10 fold change ([6]; 1 uM KAM): -0.4812
median Log10 fold change ([6]; 10 uM KAM): -0.5497
IC50 [6, 7]: 518 nM
